The results in this text go back to patent US11845760B2, “PRMT5 inhibitors” (AMGEN INC., priority 2020, dated 2023).

For one experiment, the system named is HCT116 MTAP null cells. The experiment is described as follows: HCT116 MTAP null cell line proliferation (CellTiter-Glo cell viability, 6 days). It counts as cell-based. As to conditions: HCT116 MTAP null cells, 6 days of treatment, CellTiter-Glo cell viability, read-out: HCT-116 MTAP null IC50. In outline:
(§1)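 Viability by CellTiter-Glo after 6 days' drug exposure in wild-type HCT116 and its MTAP-null knockout, with DMSO-only control. Dosing used either 1:3 steps (top 1 or 10 μM) or 22 points in 1:2 steps (top 10 or 50 μM). IC50 taken where the fitted curve crosses 50% of control.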
Background: In ATP-based viability assays light output follows the ATP content of the culture.

The test system of a further experiment is HCT116 WT cells. The experiment is described as follows: HCT116 WT cell line proliferation (CellTiter-Glo cell viability, 6 days). It counts as cell-based. As to conditions: HCT116 WT (parent) cells, 6 days of treatment, CellTiter-Glo cell viability, read-out: HCT-116 WT IC50. In outline: as §1

Like-named read-outs stand apart in the source and are kept apart here.

Regarding `C[C@H]1COC[C@@H](c2ccc(C(F)(F)F)nc2)N1C(=O)c1cc2c3c(c(N)nc2cn1)COC3` (racemic) [Example 340, (4-amino-1,3-dihydrofuro[3,4-c][1,7]naphthyridin-8-yl)((3R,5S)-3-methyl-5-(6-(trifluoromethyl)-3-pyridinyl)-4-morpholinyl)methanone and (4-amino-1,3-dihydrofuro[3,4-c][1,7]naphthyridin-8-yl)((3S,5R)-3-methyl-5-(6-(trifluoromethyl)-3-pyridinyl)-4-morpholinyl)methanone], the IC50 in the experiment on HCT116 MTAP null cells (HCT116-MTAP null, 144 h) stood at 71 nM; with HCT116 WT cells (Homo sapiens, HCT-116, 144 h), 6440 nM.
On the same counts, the results for `Nc1nc2ccc(C(=O)N3CCOCC3c3ccc(F)c(OC(F)(F)F)c3)cc2c2c1COC2` (racemic) [Example 341, (4-amino-1,3-dihydrofuro[3,4-c]quinolin-8-yl)((3R)-3-(4-fluoro-3-(trifluoromethoxy)phenyl)-4-morpholinyl)methanone and (4-amino-1,3-dihydrofuro[3,4-c]quinolin-8-yl)((3S)-3-(4-fluoro-3-(trifluoromethoxy)phenyl)-4-morpholinyl)methanone] are 871 nM and 13200 nM.
`Nc1nc2cc(F)c(C(=O)N3CCOCC3c3ccc(F)c(C(F)(F)F)c3)cc2c2c1COC2` (racemic) [Example 342, (4-amino-7-fluoro-1,3-dihydrofuro[3,4-c]quinolin-8-yl)((3R)-3-(4-fluoro-3-(trifluoromethyl)phenyl)-4-morpholinyl)methanone and (4-amino-7-fluoro-1,3-dihydrofuro[3,4-c]quinolin-8-yl)((3S)-3-(4-fluoro-3-(trifluoromethyl)phenyl)-4-morpholinyl)methanone]: the results for the IC50 in the experiment with HCT116 MTAP null cells and in the experiment on HCT116 WT cells were 117 nM and 6170 nM, respectively.
As for `C[C@H]1OCc2c1c(N)nc1ccc(C(=O)N3CCOC[C@H]3c3ccc(C(F)(F)F)cn3)cc21` (racemic) [Example 343, ((3R)-4-amino-3-methyl-1,3-dihydrofuro[3,4-c]quinolin-8-yl)((3R)-3-(5-(trifluoromethyl)-2-pyridinyl)-4-morpholinyl)methanone and ((3R)-4-amino-3-methyl-1,3-dihydrofuro[3,4-c]quinolin-8-yl)((3S)-3-(5-(trifluoromethyl)-2-pyridinyl)-4-morpholinyl)methanone], the IC50 worked out at 308 nM in the experiment with HCT116 MTAP null cells (HCT116-MTAP null, 144 h) and 16200 nM in the experiment with HCT116 WT cells (Homo sapiens, HCT-116, 144 h).
On the same counts, the results for `Nc1nc2cc(Cl)c(C(=O)N3CCOCC3c3ccc(C(F)(F)F)cn3)cc2c2c1COC2` (racemic) [Example 344, (4-amino-7-chloro-1,3-dihydrofuro[3,4-c]quinolin-8-yl)((3R)-3-(5-(trifluoromethyl)-2-pyridinyl)-4-morpholinyl)methanone and (4-amino-7-chloro-1,3-dihydrofuro[3,4-c]quinolin-8-yl)((3S)-3-(5-(trifluoromethyl)-2-pyridinyl)-4-morpholinyl)methanone] are 58 nM and 1410 nM.
For `Nc1nc2cnc(C(=O)N3CCOCC3c3ccc(F)c(OC(F)(F)F)c3)cc2c2c1COC2` (racemic) [Example 345, (4-amino-1,3-dihydrofuro[3,4-c][1,7]naphthyridin-8-yl)((3R)-3-(4-fluoro-3-(trifluoromethoxy)phenyl)-4-morpholinyl)methanone and (4-amino-1,3-dihydrofuro[3,4-c][1,7]naphthyridin-8-yl)((3S)-3-(4-fluoro-3-(trifluoromethoxy)phenyl)-4-morpholinyl)methanone], in that order: 346 nM and 19100 nM.
Regarding `Nc1nc2cc(Cl)c(C(=O)N3CCOCC3c3ccc(F)c(OC(F)(F)F)c3)cc2c2c1COC2` (racemic) [Example 346, (4-amino-7-chloro-1,3-dihydrofuro[3,4-c]quinolin-8-yl)((3R)-3-(4-fluoro-3-(trifluoromethoxy)phenyl)-4-morpholinyl)methanone and (4-amino-7-chloro-1,3-dihydrofuro[3,4-c]quinolin-8-yl)((3S)-3-(4-fluoro-3-(trifluoromethoxy)phenyl)-4-morpholinyl)methanone], the IC50 with HCT116 MTAP null cells (HCT116-MTAP null, 144 h) was 62 nM; with HCT116 WT cells (Homo sapiens, HCT-116, 144 h), 1950 nM.
On the same counts, the results for `Nc1nc2cc(F)c(C(=O)N3CCOCC3c3ccc(F)c(OC(F)(F)F)c3)cc2c2c1COC2` (racemic) [Example 347, (4-amino-7-fluoro-1,3-dihydrofuro[3,4-c]quinolin-8-yl)((3R)-3-(4-fluoro-3-(trifluoromethoxy)phenyl)-4-morpholinyl)methanone and (4-amino-7-fluoro-1,3-dihydrofuro[3,4-c]quinolin-8-yl)((3S)-3-(4-fluoro-3-(trifluoromethoxy)phenyl)-4-morpholinyl)methanone] are 325 nM and 4700 nM.
With `Nc1nc2ccc(C(=O)N3CCOCC3c3ccc(F)c(C(F)(F)F)c3)cc2c2c1COC2` (racemic) [Example 348, (4-amino-1,3-dihydrofuro[3,4-c]quinolin-8-yl)((3R)-3-(4-fluoro-3-(trifluoromethyl)phenyl)-4-morpholinyl)methanone and (4-amino-1,3-dihydrofuro[3,4-c]quinolin-8-yl)((3S)-3-(4-fluoro-3-(trifluoromethyl)phenyl)-4-morpholinyl)methanone], the IC50 in the experiment with HCT116 MTAP null cells (HCT116-MTAP null, 144 h) amounted to 784 nM; in the experiment with HCT116 WT cells (Homo sapiens, HCT-116, 144 h), 13000 nM.
Turning to `Nc1nc2cnc(C(=O)N3CCOCC3c3ccc(F)c(C(F)(F)F)c3)cc2c2c1COC2` (racemic) [Example 349, (4-amino-1,3-dihydrofuro[3,4-c][1,7]naphthyridin-8-yl)((3R)-3-(4-fluoro-3-(trifluoromethyl)phenyl)-4-morpholinyl)methanone and (4-amino-1,3-dihydrofuro[3,4-c][1,7]naphthyridin-8-yl)((3S)-3-(4-fluoro-3-(trifluoromethyl)phenyl)-4-morpholinyl)methanone], the IC50 in the experiment on HCT116 MTAP null cells was 505 nM; in the experiment on HCT116 WT cells it was 20800 nM.
Consider `Nc1nc2cc(Cl)c(C(=O)N3CCOCC3c3ccc(F)c(C(F)(F)F)c3)cc2c2c1COC2` (racemic) [Example 350, (4-amino-7-chloro-1,3-dihydrofuro[3,4-c]quinolin-8-yl)((3R)-3-(4-fluoro-3-(trifluoromethyl)phenyl)-4-morpholinyl)methanone and (4-amino-7-chloro-1,3-dihydrofuro[3,4-c]quinolin-8-yl)((3S)-3-(4-fluoro-3-(trifluoromethyl)phenyl)-4-morpholinyl)methanone], for which the IC50 came to 107 nM in the experiment on HCT116 MTAP null cells and 2890 nM in the experiment on HCT116 WT cells.
As for `Nc1nc2cc(F)c(C(=O)N3CCOCC3c3ccc(C(F)(F)F)cn3)cc2c2c1COC2` (racemic) [Example 351, (4-amino-7-fluoro-1,3-dihydrofuro[3,4-c]quinolin-8-yl)((3R)-3-(5-(trifluoromethyl)-2-pyridinyl)-4-morpholinyl)methanone and (4-amino-7-fluoro-1,3-dihydrofuro[3,4-c]quinolin-8-yl)((3S)-3-(5-(trifluoromethyl)-2-pyridinyl)-4-morpholinyl)methanone], the IC50 in the experiment with HCT116 MTAP null cells (HCT116-MTAP null, 144 h) is 129 nM; in the experiment with HCT116 WT cells (Homo sapiens, HCT-116, 144 h) it was 6000 nM.

For orientation: IC50 means the concentration that gives 50% inhibition.
